In ChEMBL document CHEMBL1141099, “Discovery of N-(2,6-dimethylphenyl)-substituted semicarbazones as anticonvulsants: hybrid pharmacophore-based design” (2005):

Columns and labels:
[1] = molecular target: 4-aminobutyrate aminotransferase, mitochondrial (Rattus norvegicus) (UniProt P50554); assay: In vitro percentage inhibition activity against GABA-T enzyme at a concentration of 0.625 uM after 3 h
[2] = molecular target: 4-aminobutyrate aminotransferase, mitochondrial (Rattus norvegicus) (UniProt P50554); assay: In vitro percentage inhibition activity against GABA-T enzyme at a concentration of 0.625 uM after 6 h
[3] = molecular target: 4-aminobutyrate aminotransferase, mitochondrial (Rattus norvegicus) (UniProt P50554); assay: In vitro percentage inhibition activity against GABA-T enzyme at a concentration of 0.625 uM after 4.5 h
Rattus norvegicus [4] = assay: Number of rats protected at a dose of 30 mg/Kg when given oral at 1 hr upon maximal electroshock seizure; Total number of rats = 4; type: functional
Rattus norvegicus [5] = assay: Number of rats protected at a dose of 30 mg/Kg when given oral at 2 hr upon maximal electroshock seizure; Total number of rats = 4; type: functional
Rattus norvegicus [6] = assay: Number of rats protected at a dose of 30 mg/Kg when given oral at 4 hr upon maximal electroshock seizure; Total number of rats = 4; type: functional
Rattus norvegicus [7] = assay: Number of rats protected at a dose of 30 mg/Kg when given oral at 0.5 hr upon maximal electroshock seizure; Total number of rats = 4; type: functional
Rattus norvegicus [8] = assay: Number of rats protected at a dose of 30 mg/Kg when given oral at 0.25 hr upon maximal electroshock seizure; Total number of rats = 4; type: functional
Rattus norvegicus [9] = assay: Effect on GABA level in rat whole brain concentration after 2 hr post-treatment at a dose of 100 mg/Kg when given i.p.; Control 48.4; type: functional
Rattus norvegicus [10] = assay: Effect on GABA level in rat whole brain concentration after 7 days post-treatment at a dose of 30 mg/Kg when given orally; Control 50.5; type: functional
Rattus norvegicus [11] = assay: Toxic dose observed for anticonvulsant activity when given i.p., at 0.5 hr in rat upon neurotoxicity seizure; type: functional; settings: ip
Rattus norvegicus [12] = species: Rattus norvegicus; assay: Ex vitro percentage inhibition activity against GABA-T enzyme at a concentration of 1.25 uM after 4.5 h; type: functional
Rattus norvegicus [13] = species: Rattus norvegicus; assay: Protective index between effective dose and toxic dose in rat; type: functional
Mus musculus [14] = assay: Minimum dose required for anticonvulsant activity when given i.p., at 4 hr in mice upon maximal electroshock seizure; type: functional
Mus musculus [15] = assay: Minimum dose required for anticonvulsant activity when given i.p., at 0.5 hr in mice upon maximal electroshock seizure; type: functional
Rattus norvegicus [16] = assay: Effective dose required for anticonvulsant activity when given i.p., at 0.5 hr in rat upon maximal electroshock seizure; type: functional; settings: ip
Mus musculus [17] = assay: Minimum dose required for anticonvulsant activity when given i.p., at 0.5 hr in mice upon neurotoxicity seizure using rotarod test; type: functional
Rattus norvegicus [18] = species: Rattus norvegicus; assay: Ex vitro percentage inhibition activity against GABA-T enzyme at a concentration of 1.25 uM after 3 h; type: functional
Rattus norvegicus [19] = species: Rattus norvegicus; assay: Ex vitro percentage inhibition activity against GABA-T enzyme at a concentration of 1.25 uM after 6 h; type: functional
Mus musculus [20] = assay: Minimum dose required for anticonvulsant activity when given i.p., at 0.5 hr in mice upon subcutaneous pentylenetetrazole seizure; type: functional
Mus musculus [21] = assay: Minimum dose required for anticonvulsant activity when given i.p., at 0.5 hr in mice upon subcutaneous strychnine seizure; type: functional
Mus musculus [22] = assay: Mean sleeping time evaluated for CNS study using the pentobarbital-induced narcosis model at a dose of 100 mg/Kg when given i.p., in mice (No. of animals 6)
Mus musculus [23] = assay: Post treatment activity score for CNS study using a actophotometer at a dose of 100 mg/Kg after 1 hr when given i.p., in mice (No. of animals 6); Control (24h before) 281
Mus musculus [24] = assay: Post treatment activity score for CNS study using a actophotometer at a dose of 100 mg/Kg after 0.5 hr when given i.p., in mice (No. of animals 6); Control (24h before) 281
Mus musculus [25] = assay: Post treatment immobility time for CNS study using Porsolt's swimpool test at a dose of 100 mg/Kg after 1 hr when given i.p., in mice (No. of animals 6); Control (24h before) 132
Rattus norvegicus [26] = assay: Enzymatic activity to assess the increase in level of SGOT at a dose of 30 mg/Kg for 14 days when given p.o., in 6 rats; Control 73.1; type: functional
Rattus norvegicus [27] = assay: Enzymatic activity to assess the increase in level of SGPT at a dose of 30 mg/Kg for 14 days when given p.o., in 6 rats; Control 45.0; type: functional
Rattus norvegicus [28] = assay: Toxic dose observed for anticonvulsant activity when given orally at 4 h in rat upon neurotoxicity seizure; type: functional; settings: po
Rattus norvegicus [29] = assay: Effective dose required for anticonvulsant activity when given orally at 4 h in rat upon maximal electroshock seizure; type: functional; settings: po
Mus musculus [30] = assay: Minimum dose required for anticonvulsant activity when given i.p., at 2 hr in mice upon subcutaneous strychnine seizure; type: functional
Mus musculus [31] = assay: Minimum dose required for anticonvulsant activity when given i.p., in mice upon neurotoxicity seizure using rotarod test
Mus musculus [32] = assay: Post treatment activity score for CNS study using a actophotometer at a dose of 100 mg/Kg after 1 hr when given i.p., in mice (No. of animals 6); Control (24h before) 258
Mus musculus [33] = assay: Post treatment activity score for CNS study using a actophotometer at a dose of 100 mg/Kg after 0.5 hr when given i.p., in mice (No. of animals 6); Control (24h before) 258
Mus musculus [34] = assay: Post treatment immobility time for CNS study using Porsolt's swimpool test at a dose of 100 mg/Kg after 1 hr when given i.p., in mice (No. of animals 6); Control (24h before) 184

Chain of 4-aminobutyrate aminotransferase, mitochondrial (Rattus norvegicus) (P50554 28-500 limits assumed): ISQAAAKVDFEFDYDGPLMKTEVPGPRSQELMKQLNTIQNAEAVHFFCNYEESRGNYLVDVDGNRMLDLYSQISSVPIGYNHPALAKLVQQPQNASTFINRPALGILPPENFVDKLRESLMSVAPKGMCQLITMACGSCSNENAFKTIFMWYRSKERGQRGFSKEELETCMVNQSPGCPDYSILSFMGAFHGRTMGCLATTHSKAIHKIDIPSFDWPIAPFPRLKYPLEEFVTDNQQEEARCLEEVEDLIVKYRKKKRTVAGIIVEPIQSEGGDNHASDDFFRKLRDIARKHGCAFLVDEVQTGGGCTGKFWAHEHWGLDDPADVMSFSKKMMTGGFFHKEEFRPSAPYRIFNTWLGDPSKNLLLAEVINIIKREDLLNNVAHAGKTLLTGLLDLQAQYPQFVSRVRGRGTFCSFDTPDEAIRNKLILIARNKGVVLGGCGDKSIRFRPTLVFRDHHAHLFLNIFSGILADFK

`Cc1cccc(C)c1NC(=O)N/N=C/c1ccccc1[N+](=O)[O-]` showed an inhibition [1] of 53%, an inhibition [2] of 40% and an inhibition [3] of 0%. The Activity (Rattus norvegicus [4]) was 2, the Activity (Rattus norvegicus [5]) was 2 and the Activity (Rattus norvegicus [6]) was 2. For the same compound, the Activity (Rattus norvegicus [7]) was 2, the Activity (Rattus norvegicus [8]) was 2 and the Activity (Rattus norvegicus [9]) was 84.7 ug/100mg of tissue. The Activity (Rattus norvegicus [10]) was 81.6 ug/100mg of tissue, the TD50 (Rattus norvegicus [11]) was > 100 mg/kg and the Inhibition (Rattus norvegicus [12]) was 98%. For the same compound, the PI (Rattus norvegicus [13]) was >4.3, the MES (Mus musculus [14]) was 300 mg/kg and the MES (Mus musculus [15]) was 300 mg/kg. For the same compound, the ED50 (Rattus norvegicus [16]) was 23.2 mg/kg, the NT (Mus musculus [17]) was 300 mg/kg and the Inhibition (Rattus norvegicus [18]) was 0%. It also gave an Inhibition (Rattus norvegicus [19]) of 23%, a PTZ seizure (Mus musculus [20]) of 300 mg/kg and an STY seizure (Mus musculus [21]) of 100 mg/kg. It also gave a Time (Mus musculus [22]) of 141 min, an Activity (Mus musculus [23]) of 177 and an Activity (Mus musculus [24]) of 177. It also gave an Activity (Mus musculus [25]) of 190.

`C/C(=N\NC(=O)Nc1c(C)cccc1C)c1ccc(N)cc1` gave an Activity (Rattus norvegicus [4]) of 4, an Activity (Rattus norvegicus [5]) of 2 and an Activity (Rattus norvegicus [6]) of 4. It also gave an Activity (Rattus norvegicus [7]) of 3, an Activity (Rattus norvegicus [8]) of 1 and an SGOT activity (Rattus norvegicus [26]) of 71.3 units/mL. For the same compound, the SGPT activity (Rattus norvegicus [27]) was 44.6 units/mL, the TD50 (Rattus norvegicus [28]) was > 464 mg/kg and the PI (Rattus norvegicus [13]) was >15.9. It also gave an MES (Mus musculus [14]) of 300 mg/kg, an MES (Mus musculus [15]) of 100 mg/kg and an ED50 (Rattus norvegicus [29]) of 29.1 mg/kg. For the same compound, the NT (Mus musculus [17]) was 300 mg/kg, the PTZ seizure (Mus musculus [20]) was 300 mg/kg and the STY seizure (Mus musculus [30]) was 100 mg/kg. For the same compound, the STY seizure (Mus musculus [21]) was 30 mg/kg, the NT (Mus musculus [31]) was 300 mg/kg and the Activity (Mus musculus [32]) was 187. The Activity (Mus musculus [33]) was 202 and the Activity (Mus musculus [34]) was 204.
